In patent US20260374739A1, “SMALL MOLECULAR WEIGHT CHEMICAL COMPOUND TO ANTAGONIZE EPH-EPHRIN TETRAMERIZATION AND INHIBIT BIDIRECTIONAL SIGNALING” (THE BOARD OF REGENTS OF THE UNIVERSITY OF TEXAS SYSTEM, priority 2022, published 2026):
Where two headings read alike, the source gives them in different places.

Biological target: T1, EphA3-EphrinA5 (Homo sapiens, UniProt P29320)
T1 sequence (P29320 21-541 limits assumed): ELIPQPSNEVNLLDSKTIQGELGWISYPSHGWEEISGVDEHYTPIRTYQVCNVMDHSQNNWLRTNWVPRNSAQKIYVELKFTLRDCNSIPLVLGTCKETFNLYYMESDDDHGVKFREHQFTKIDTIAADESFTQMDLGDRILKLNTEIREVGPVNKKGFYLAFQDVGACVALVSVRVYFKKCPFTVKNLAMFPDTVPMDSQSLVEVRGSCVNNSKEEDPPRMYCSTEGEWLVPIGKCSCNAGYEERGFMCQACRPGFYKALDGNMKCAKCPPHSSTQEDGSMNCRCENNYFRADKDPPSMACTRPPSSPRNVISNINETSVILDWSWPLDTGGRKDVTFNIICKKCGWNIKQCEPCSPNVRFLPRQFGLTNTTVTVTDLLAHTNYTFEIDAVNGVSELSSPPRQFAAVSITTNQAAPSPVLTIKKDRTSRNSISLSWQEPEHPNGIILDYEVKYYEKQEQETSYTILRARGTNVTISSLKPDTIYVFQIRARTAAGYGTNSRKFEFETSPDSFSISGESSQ
Test: Octet, immobilized human EphA3 binding to human EphrinA5
Description: The Octet system was used to probe the interactions of epitope-tagged human A class proteins, focusing on immobilized EphA3 binding to two of its cognate ligands, EphrinA1 and EphrinA5, as well as EphB2 binding to EphrinA5 (FIG. 27). […] Focusing on the dimerization-driven EphA3-EA5 interaction first (green sensorgram trace), which mimics what is disclosed above for EphB4-EB2, the initial binding of soluble EphrinA5 to the immobilized EphA3 is very fast and strong with a long and steep 84° slope of response that then quickly bends around 35 sec into the association step to form a more gradual tetramerization accumulation slope. […] However, again like the EphB4-EB2 interaction, once placed into dissociation, a significant fraction of the bound EA5 protein melts quickly and the off phase continues downward with a slow gradual decline in bound protein. Although the dissociation was for only 500 sec, the continued downward slope of the response indicates most of the bound EA5 protein would eventually melt off of the immobilized EphA3 protein. This is referred to as a classic dimerization-driven interaction, fast and strong initial binding in the association step but with most of the bound protein coming off in the dissociation due to lack of formation of stable tetramers. EphA3 interacts with EphrinA1 with totally different kinetics/dynamics (orange sensorgram trace). Here, the initial high 84° dimerization slope phase is extremely brief (5 sec) with the binding quickly snapping into a linear tetramerization accumulation phase with a 25° slope, and that once placed into dissociation step almost no bound protein melts, just the small amount that would represent dimer interactions falling off in the first few seconds after being placed into dissociation. […] EphB2 interacting with EA5 is similar to the EphA3-EA1 interaction, in that the association step is characterized by a very brief (5 sec) high 84° slope phase that quickly bends into a more gradual tetramer accumulation phase (blue sensorgram trace). […] The strong initial off phase of the EphB2-EA5 complexes in the dissociation represents both the melting of weak dimers and of the relatively weaker affinity tetramers formed by the cross A/B class EphB2-EA5 molecules.
While there is no effect of A20 on the initial 5 sec fast EphA3-EA1 dimer phase, there is a very strong effect of compound on tetramer accumulation. It was estimated that >70% of the EphA3-EA1 binding interaction can be attributed to the tetramer which is effectively disrupted by compound, with very little binding activity attributed to the dimer and more accurately the dimerization:tetramerization ratio of this interaction is 10:90 not 30:70. […] Since this is a dimerization-driven type interaction (dimerization:tetramerization ratio of here is 72:28), the overall effect of compound on this interaction is muted.

[1] = Human EphA3-EphrinA5, immobilized human EphA3, 50 nM soluble human EphrinA5, association, absolute, read-out: Absolute Association IC50
[2] = Human EphA3-EphrinA5, immobilized human EphA3, 50 nM soluble human EphrinA5, association, relative, read-out: Relative Association IC50
[3] = Human EphA3-EphrinA5, immobilized human EphA3, 50 nM soluble human EphrinA5, dissociation, relative, read-out: Relative Dissociation IC50
[4] = Human EphA3-EphrinA5, immobilized human EphA3, 50 nM soluble human EphrinA5, dissociation, absolute, read-out: Absolute Dissociation IC50

Row | SMILES | IC50 [nM] | IC50 [1] [nM] | IC50 [2] [nM] | IC50 [3] [nM] | IC50 [4] [nM] | loss of tetramer accumulation (1 μM)
1 | O=S1(=O)CCN(Cc2ccc(O)c3ncccc23)CC1 [Compound 15, 4-((8-hydroxyquinolin-1-ium-5-yl)methyl)thiomorpholin-4-ium 1,1-dioxide chloride] | 2100 | 100000 | > 1000 | < 1000 | – | –
2 | O=[N+]([O-])c1cc(CN2CCOCC2)c2cccnc2c1O [Compound 10, 4-((8-hydroxy-7-nitroquinolin-1-ium-5-yl)methyl)morpholin-4-ium chloride] | 4480 | 100000 | 2490 | 790 | – | –
3 | Oc1c(Br)cc(CN2CCOCC2)c2cccnc12 [Compound 6, 4-((7-bromo-8-hydroxyquinolin-1-ium-5-yl)methyl)morpholin-4-ium chloride] | 370 | 100000 | 520 | – | 520 | –
4 | Oc1c(I)cc(CN2CCOCC2)c2cccnc12 [Compound 8, 4-((8-hydroxy-7-iodoquinolin-1-ium-5-yl)methyl)morpholin-4-ium chloride] | 360 | > 1600 | 500 | – | 480 | –
5 | Oc1c(Br)cc(CN2CCOCC2)c2cccnc12 [Compound 5, 7-bromo-5-(morpholinomethyl)quinolin-8-ol] | – | – | – | – | – | striking maximized loss of tetramer accumulation
6 | Oc1ccc(CN2CCOCC2)c2cccnc12 [Compound 1, 5-(morpholinomethyl)quinolin-8-ol] | 3220 | 100000 | < 1000 | 1240 | – | –
7 | Oc1c(Cl)cc(CN2CCOCC2)c2cccnc12 [Compound 4, 4-((7-chloro-8-hydroxyquinolin-1-ium-5-yl)methyl)morpholin-4-ium chloride] | 540 | 12900 | 1000 | – | 620 | –
8 | Oc1ccc(CN2CCN(Cc3ccc(C(F)(F)F)cc3)CC2)c2cccnc12 [Compound 48, 5-((4-(4-(trifluoromethyl)benzyl)piperazin-1-yl)methyl)quinolin-8-ol] | 4330 | 100000 | 3250 | – | 6240 | –
